Experimental data published in ChEMBL document CHEMBL1135319, “New N-alkyl-1,2-dihydro-2-thioxo-3-pyridinecarbothioamides as antituberculous agents with improved pharmacokinetics” (Bioorg Med Chem Lett, 2002).
In brackets after ≈: the same amount, converted by molar mass.

Key:
Mycobacterium avium [1] = assay: In vitro antibacterial activity of compound against Mycobacterium avium MAC ATCC 15769; format: functional
[2] = test system: Mycobacterium tuberculosis; assay: In vitro antibacterial activity against Mycobacterium tuberculosis MT-2 (wild type strain) isolated from infected patients.; format: functional
[3] = Clearance rate after i.v. administration in rats; format: ADME, organism-based; settings: rat, in vivo, iv
Mycobacterium avium [4] = assay: In vitro antibacterial activity of compound against Mycobacterium avium MAC AN2 wild type strain) isolated from infected patients.; format: functional
Mycobacterium avium [5] = assay: In vitro antibacterial activity of compound against Mycobacterium avium MAC ANI (wild type strain) isolated from infected patients.; format: functional
[6] = Mean residence time (Pharmacokinetic property) after i.v. administration in rats; format: ADME, organism-based; settings: rat, in vivo, iv
[7] = test system: Mycobacterium tuberculosis; assay: In vitro antibacterial activity against Mycobacterium tuberculosis MT-1 (wild type strain) isolated from infected patients.; format: functional
[8] = Volume of steady state distribution after i.v. administration in rats; format: ADME, organism-based; settings: rat, in vivo, iv; read-out: Vss
Mycobacterium avium [9] = assay: In vitro antibacterial activity of compound against Mycobacterium avium MAC ISS-486 (wild type strain) isolated from infected patients.; format: functional
[10] = test system: Mycobacterium tuberculosis; assay: In vitro antibacterial activity against Mycobacterium tuberculosis MT ATCC H37Rv strain; format: functional
Mycobacterium avium [11] = assay: In vitro antibacterial activity of compound against Mycobacterium avium MAC AN3 (wild type strain) isolated from infected patients.; format: functional
[12] = Area under the curve (Concentration) was determined for the compound as AUC with limits 0-8 after i.v. administration in rats; format: ADME, organism-based; design: route intravenous; settings: rat, in vivo, iv
[13] = Elimination half life after i.v. administration of compound in rats; format: ADME, organism-based; settings: rat, in vivo, iv
[14] = Toxicity after intraperitoneal administration in rats and mice; settings: rodentia, in vivo, ip

Row | SMILES | MIC (Mycobacterium avium [1]) [µg/mL] | MIC [2] [µg/mL] | clearance [3] [mL/min/kg] | MIC (Mycobacterium avium [4]) [µg/mL] | MIC (Mycobacterium avium [5]) [µg/mL] | MRT [6] [h] | MIC [7] [µg/mL] | Vd [8] [L/kg] | MIC (Mycobacterium avium [9]) [µg/mL] | MIC [10] [µg/mL] | MIC (Mycobacterium avium [11]) [µg/mL] | AUC [12] [ng·h/mL] | half-life [13] [h] | LD50 [14] [mg/kg]
1 | OCC/N=C(\S)c1cccnc1S | 8 (≈ 37.3 µM) | 8 (≈ 37.3 µM) | 93.2 | 8 (≈ 37.3 µM) | 4 (≈ 18.7 µM) | 0.72 | 4 (≈ 18.7 µM) | 4.17 | 8 (≈ 37.3 µM) | 2 (≈ 9.33 µM) | 4 (≈ 18.7 µM) | 3730 | 0.67 | > 2000
2 | CN(C)CC/N=C(\S)c1cccnc1S.Cl | > 16 | > 16 | 60.8 | > 16 | > 16 | 2.83 | 16 | 11.2 | > 16 | 8 | > 16 | 6910 | 2.72 | > 2000
3 | Cl.S/C(=N\CCN1CCCC1)c1cccnc1S | > 16 | > 16 |  | > 16 | > 16 |  | 16 |  | > 16 | 8 | > 16 |  |  | 
4 | CN1CCN(CCC/N=C(\S)c2cccnc2S)CC1.Cl | > 16 | > 16 |  | > 16 | > 16 |  | 16 |  | > 16 | 8 | > 16 |  |  | 
5 | Cl.S/C(=N\CCc1ccccn1)c1cccnc1S | 4 | 1 | 144 | 8 | 8 | 1.77 | 4 | 14.5 | 8 | 4 | 8 | 4700 | 2.22 | > 2000
6 | Cl.S/C(=N\CCCN1CCOCC1)c1cccnc1S | > 16 | 8 |  | > 16 | > 16 |  | 8 |  | > 16 | 4 | > 16 |  |  | 
7 | CC/N=C(\S)c1cccnc1S | 4 (≈ 20.2 µM) | 1 (≈ 5.04 µM) | 20 | 8 (≈ 40.3 µM) | 4 (≈ 20.2 µM) |  | 1 (≈ 5.04 µM) | 0.93 | 4 (≈ 20.2 µM) | 0.5 (≈ 2.52 µM) | 8 (≈ 40.3 µM) | 15800 |  | 
8 | CCCCCCC/N=C(\S)c1cccnc1S | 2 (≈ 7.45 µM) | 2 (≈ 7.45 µM) | 50 | 4 (≈ 14.9 µM) | 4 (≈ 14.9 µM) |  | 2 (≈ 7.45 µM) | 1.28 | 4 (≈ 14.9 µM) | 0.5 (≈ 1.86 µM) | 4 (≈ 14.9 µM) | 8250 |  | 
9 | CC[C@@H](CO)NCCN[C@@H](CC)CO [ETHAMBUTOL] |  | ≤ 2 |  | 0.5 (≈ 2.45 µM) | 1 (≈ 4.89 µM) |  | ≤ 2 |  | 2 (≈ 9.79 µM) | ≤ 2 | 2 (≈ 9.79 µM) |  |  | 
